Reference: patent US7524853B2 (Solvay Pharmaceuticals B.V., priority 2003, dated 2009)

Tests used:
Type in all cases: cell-based
[1] = biological target: T1, 17β-hydroxysteroid dehydrogenase type 1 (17β-HSD type 1) (Homo sapiens, UniProt P14061); experiment: Inhibition of 17β-HSD type 1 in MCF-7 cells stably expressing the isoenzyme (tritium labeled estrone conversion, HPLC); settings: MCF7, MCF-7 cells expressing 17β-HSD type 1, 2 nM tritium labeled estrone; for inhibition at 1 µM: 1 μM test compound, read-out: % Inhibition HSD1 1 μM; for inhibition at 10 µM: 10 μM test compound, read-out: % Inhibition HSD1 10 μM
T1 construct: expressed in transfected cells; host or cells: MCF-7
T1 sequence (P14061 1-328): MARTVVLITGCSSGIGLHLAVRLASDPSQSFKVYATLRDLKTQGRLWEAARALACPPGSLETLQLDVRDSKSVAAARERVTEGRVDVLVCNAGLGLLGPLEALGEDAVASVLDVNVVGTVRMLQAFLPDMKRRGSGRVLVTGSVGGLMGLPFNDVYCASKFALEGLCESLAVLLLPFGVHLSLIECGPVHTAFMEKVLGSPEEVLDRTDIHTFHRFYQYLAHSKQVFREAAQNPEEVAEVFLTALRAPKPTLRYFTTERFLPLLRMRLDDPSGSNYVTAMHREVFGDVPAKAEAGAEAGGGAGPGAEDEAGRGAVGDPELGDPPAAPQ
In short: (§1)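 MCF-7 lines stably expressing each 17β-HSD isoenzyme incubated in growth medium with compound at two concentrations and 2 nM tritiated substrate (estrone, type 1; estradiol, type 2; androstenedione, type 3). Reaction stopped with TCA; conversion measured by HPLC with flow scintillation, inhibition relative to compound-free control.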

[2] = biological target: T2, 17β-hydroxysteroid dehydrogenase type 3 (17β-HSD type 3) (Homo sapiens, UniProt P37058); experiment: Inhibition of 17β-HSD type 3 in MCF-7 cells stably expressing the isoenzyme (tritium labeled androstenedione conversion, HPLC); settings: MCF7, MCF-7 cells expressing 17β-HSD type 3, 2 nM tritium labeled androstenedione; for inhibition at 1 µM: 1 μM test compound, read-out: % Inhibition HSD3 1 μM; for inhibition at 10 µM: 10 μM test compound, read-out: % Inhibition HSD3 10 μM
T2 construct: expressed in transfected cells; host or cells: MCF-7
T2 sequence (P37058 1-310): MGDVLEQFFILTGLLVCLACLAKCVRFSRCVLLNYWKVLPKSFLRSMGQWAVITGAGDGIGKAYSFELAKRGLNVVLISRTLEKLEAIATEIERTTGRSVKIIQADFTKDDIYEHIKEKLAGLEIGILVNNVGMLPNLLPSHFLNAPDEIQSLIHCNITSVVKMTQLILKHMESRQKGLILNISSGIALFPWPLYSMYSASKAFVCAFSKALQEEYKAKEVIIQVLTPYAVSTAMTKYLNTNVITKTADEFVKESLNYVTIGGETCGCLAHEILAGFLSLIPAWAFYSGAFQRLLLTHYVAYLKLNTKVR
In short: as §1

[3] = biological target: T3, 17β-hydroxysteroid dehydrogenase type 2 (17β-HSD type 2) (Homo sapiens, UniProt P37059); experiment: Inhibition of 17β-HSD type 2 in MCF-7 cells stably expressing the isoenzyme (tritium labeled estradiol conversion, HPLC); settings: MCF7, MCF-7 cells expressing 17β-HSD type 2, 2 nM tritium labeled estradiol; for inhibition at 1 µM: 1 μM test compound, read-out: % Inhibition HSD2 1 μM; for inhibition at 10 µM: 10 μM test compound, read-out: % Inhibition HSD2 10 μM
T3 construct: expressed in transfected cells; host or cells: MCF-7
T3 sequence (P37059 1-387): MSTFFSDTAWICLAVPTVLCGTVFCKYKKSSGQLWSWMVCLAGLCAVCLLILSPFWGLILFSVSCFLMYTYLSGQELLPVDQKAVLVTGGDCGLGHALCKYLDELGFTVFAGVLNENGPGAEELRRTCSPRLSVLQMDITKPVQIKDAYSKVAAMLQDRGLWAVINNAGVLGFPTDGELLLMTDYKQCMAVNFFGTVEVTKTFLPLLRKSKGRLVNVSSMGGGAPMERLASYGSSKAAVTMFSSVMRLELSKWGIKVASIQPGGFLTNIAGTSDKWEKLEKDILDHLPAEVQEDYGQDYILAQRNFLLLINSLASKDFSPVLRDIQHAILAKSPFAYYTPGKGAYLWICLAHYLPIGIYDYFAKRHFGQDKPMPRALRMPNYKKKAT
In short: as §1

Structure (SMILES) | inhibition at 1 µM [1] [%] | inhibition at 10 µM [1] [%] | inhibition at 1 µM [2] [%] | inhibition at 10 µM [2] [%] | inhibition at 1 µM [3] [%] | inhibition at 10 µM [3] [%]
COc1cc(-c2nc3sc4c(c3c(=O)n2Cc2ccccc2)CCC(Br)C4=O)cc(OC)c1OC (stereo not drawn) [No. 46, 3-benzyl-7-bromo-2-(3,4,5-trimethoxyphenyl)-6,7-dihydro-3H,5H-benzo[4,5]thieno[2,3-d]pyrimidine-4,8-dione] | 32.1 | 72.2 | 31.4 | 37.1 | 44 | 20.9
COc1cc(-c2nc3sc4c(c3c(=O)n2Cc2ccccc2)CCC(Br)C4=O)c(Br)c(OC)c1OC (stereo not drawn) [No. 47, 3-benzyl-7-bromo-2-(2-bromo-3,4,5-trimethoxyphenyl)-6,7-dihydro-3H,5H-benzo[4,5]thieno[2,3-d]pyrimidine-4,8-dione] | 16.1 | 63.2 | 39.7 | 52.2 | 31.9 | 59
COc1cc(-c2nc3sc4c(c3c(=O)n2Cc2ccccc2)CCC(Br)(Br)C4=O)c(Br)c(OC)c1OC [No. 48, 3-benzyl-7,7-dibromo-2-(2-bromo-3,4,5-trimethoxyphenyl)-6,7-dihydro-3H,5H-benzo[4,5]thieno[2,3-d]pyrimidine-4,8-dione] | 27.4 | 36.5 | 33.7 | 23.4 | 0.8 | 25.6
COc1cc(-c2nc3sc4c(O)cccc4c3c(=O)n2Cc2ccccc2)c(Br)c(OC)c1OC [No. 49, 3-Benzyl-2-(2-bromo-3,4,5-trimethoxyphenyl)-8-hydroxy-3H-benzo[4,5]thieno[2,3-d]pyrimidin-4-one] | 24.7 | 86.2 | 12.4 | 52.6 | 20.1 | 36.9
COc1cc(-c2nc3sc4c(OC(C)=O)cccc4c3c(=O)n2Cc2ccccc2)c(Br)c(OC)c1OC [No. 50, Acetic acid 3-benzyl-2-(2-bromo-3,4,5-trimethoxyphenyl)-4-oxo-3,4-dihydro-benzo[4,5]thieno[2,3-d]pyrimidin-8-yl ester] | 34.4 | 65.8 | 32.9 | 75.8 | 32.4 | 39
COc1cc(-c2nc3sc4c(O)c(Br)ccc4c3c(=O)n2Cc2ccccc2)c(Br)c(OC)c1OC [No. 52, 3-benzyl-7-bromo-2-(2-bromo-3,4,5-trimethoxyphenyl)-8-hydroxy-3H-benzo[4,5]thieno[2,3-d]pyrimidin-4-one] | 4.7 | 11.6 | -2.4 | 4.3 | 0.1 | 19.1
COc1cc(-c2nc3sc4c(O)cccc4c3c(=O)n2Cc2ccccc2)cc(OC)c1OC [No. 53, 3-Benzyl-8-hydroxy-2-(3,4,5-trimethoxyphenyl)-3H-benzo[4,5]thieno[2,3-d]pyrimidin-4-one] | 52.2 | 71 | 32.2 | 52.7 | 22.4 | 60
COc1cc(-c2nc3sc4c(OC(C)=O)cccc4c3c(=O)n2Cc2ccccc2)cc(OC)c1OC [No. 54, Acetic acid 3-benzyl-2-(3,4,5-trimethoxyphenyl)-4-oxo-3,4-dihydro-benzo[4,5]thieno[2,3-d]pyrimidin-8-yl ester] | 35.4 | 76.7 | 24.6 | 55.2 | 17 | 59.8
O=C1c2sc3nc(-c4ccccc4)n(Cc4ccccc4)c(=O)c3c2CCC1Br (stereo not drawn) [No. 58, 3-Benzyl-7-bromo-2-phenyl-6,7-dihydro-3H,5H-benzo[4,5]thieno[2,3-d]pyrimidine-4,8-dione] | 25.5 | 54.9 | 16 | 39.4 | 22.5 | 33.9
O=C1c2sc3nc(-c4ccccc4)n(Cc4ccccc4)c(=O)c3c2CCC1(Br)Br [No. 59, 3-Benzyl-7,7-dibromo-2-phenyl-6,7-dihydro-3H,5H-benzo[4,5]thieno[2,3-d]pyrimidine-4,8-dione] | 24 | 20.8 | 17.6 | 31.7 | 36.7 | 40
O=c1c2c(nc(-c3ccccc3)n1Cc1ccccc1)sc1c(O)cccc12 [No. 60, 3-Benzyl-8-hydroxy-2-phenyl-3H-benzo[4,5]thieno[2,3-d]pyrimidine-4-one] | 16.3 | 36 | 10 | 45.7 | 44.2 | 76.9

More lines, now with the values ahead:

inhibition at 1 µM [1] [%] | inhibition at 10 µM [1] [%] | inhibition at 1 µM [2] [%] | inhibition at 10 µM [2] [%] | inhibition at 1 µM [3] [%] | inhibition at 10 µM [3] [%] | Structure (SMILES)
21.3 | 33.2 | 14.7 | 41.9 | 18.8 | 24.5 | O=c1c2c3c(sc2nc(-c2ccccc2)n1Cc1ccccc1)CCCC3 [No. 56, 3-Benzyl-2-phenyl-5,6,7,8-tetrahydro-3H-benzo[4,5]thieno[2,3-d]pyrimidin-4-one]
23 | 47.3 | 19.7 | 57.3 | 17.5 | 28.5 | O=C1CCCc2c1sc1nc(-c3ccccc3)n(Cc3ccccc3)c(=O)c21 [No. 57, 3-Benzyl-2-phenyl-6,7-dihydro-3H,5H-benzo[4,5]thieno[2,3-d]pyrimidine-4,8-dione]
17.7 | 26.2 | 20 | 26.4 | 25.7 | 23.8 | O=c1c2c3c(sc2nc(-c2cccs2)n1Cc1ccccc1)CCCC3 [No. 61, 3-Benzyl-2-thiophen-2-yl-5,6,7,8-tetrahydro-3H-benzo[4,5]thieno[2,3-d]pyrimidin-4-one]
25.8 | 32 | 18 | 28 | 18.9 | 26.4 | O=C1CCCc2c1sc1nc(-c3cccs3)n(Cc3ccccc3)c(=O)c21 [No. 62, 3-Benzyl-2-thiophen-2-yl-6,7-dihydro-3H,5H-benzo[4,5]thieno[2,3-d]pyrimidine-4,8-dione]
15 | 20.7 | 12.1 | 49 | 15.4 | 16.6 | O=C1CCCc2c1sc1nc(-c3ccc(Br)s3)n(Cc3ccccc3)c(=O)c21 [No. 64, 3-Benzyl-2-(5-bromothiophen-2-yl)-6,7-dihydro-3H,5H-benzo[4,5]thieno[2,3-d]pyrimidine-4,8-dione]
1.2 | 7.8 | 5 | 38 | 19.2 | 34.6 | O=C1c2sc3nc(-c4ccc(Br)s4)n(Cc4ccccc4)c(=O)c3c2CCC1Br (stereo not drawn) [No. 65, 3-Benzyl-7-bromo-2-(5-bromothiophen-2-yl)-6,7-dihydro-3H,5H-benzo[4,5]thieno[2,3-d]pyrimidine-4,8-dione]
